From publication PMC5293562, “Engineering a trifunctional proline utilization A chimaera by fusing a DNA-binding domain to a bifunctional PutA” (Bioscience Reports, 2016) come the findings set out here.

The test system of one data set is T1, EcRHH–RcPutA.
T1 construct: gene putA; single polypeptide: E. coli PutA RHH domain (residues 1-52) fused via NdeI linker to N-terminus of full-length R. capsulatus PutA; 1180 aa; N-terminal His6 tag retained; pET28a, E. coli BL21(DE3) pLysS; homodimer, 126 kDa monomer
Nature of the data set: stopped-flow, CoQ1 reduction at […] nm. The conditions noted are these: 50 mM potassium phosphate pH 7.5, 25 mM NaCl, 23°C. Type of data set: biochemical, Rhodobacter capsulatus.

Another data set deals with T2, EcPutA (Escherichia coli, UniProt P09546).
T2 construct: gene putA
The conditions noted are these: 50 mM proline reduces flavin; anaerobic; HEPES pH 7.5, 150 mM NaCl; room temperature.

A further data set has as its target T3, RcPutA (Rhodobacter capsulatus, UniProt D5AN87).
T3 construct: gene putA
The conditions noted are these: 50 mM proline reduces flavin; anaerobic; HEPES pH 7.5, 150 mM NaCl; room temperature.

The target of data set [1] is EcRHH–RcPutA chimaera (RHH domain of Escherichia coli PutA fused to the N-terminus of Rhodobacter capsulatus PutA) (Escherichia coli | Rhodobacter capsulatus) (UniProt P09546). Nature of the data set: AUC; sedimentation equilibrium, 0.2, 0.5 and 0.8 mg/ml, 8000 rpm, 50 mM Tris pH 7.5, 100 mM NaCl, 0.5 mM EDTA, 5% glycerol; global fit to an ideal single-species model.
Data set [2] has the same target. Nature of the data set: SAXS; three protein concentrations after size exclusion chromatography in 50 mM Tris, 200 mM NaCl, 0.5 mM THP, pH 7.5; mass from volume of correlation and Porod-Debye analysis; shape reconstruction with 2-fold symmetry. On the technique in general: Size exclusion chromatography separates by hydrodynamic size, large species first.
In data set [3] the test system is EcRHH-RcPutA chimaera (Escherichia coli / Rhodobacter capsulatus (chimaera)). The data set can be described thus: EMSA. The conditions noted are these: EMSA with 3 nM IRdye-700 put control DNA, 100 ug/ml calf thymus DNA, non-denaturing 4% polyacrylamide gel; binding buffer, salt, pH and temperature not given ….

Read-outs that look alike come from different tables or passages of the source.

Chain of EcRHH–RcPutA chimaera (RHH domain of Escherichia coli PutA fused to the N-terminus of Rhodobacter capsulatus PutA) (P09546 whole entry, the tested form may be a part): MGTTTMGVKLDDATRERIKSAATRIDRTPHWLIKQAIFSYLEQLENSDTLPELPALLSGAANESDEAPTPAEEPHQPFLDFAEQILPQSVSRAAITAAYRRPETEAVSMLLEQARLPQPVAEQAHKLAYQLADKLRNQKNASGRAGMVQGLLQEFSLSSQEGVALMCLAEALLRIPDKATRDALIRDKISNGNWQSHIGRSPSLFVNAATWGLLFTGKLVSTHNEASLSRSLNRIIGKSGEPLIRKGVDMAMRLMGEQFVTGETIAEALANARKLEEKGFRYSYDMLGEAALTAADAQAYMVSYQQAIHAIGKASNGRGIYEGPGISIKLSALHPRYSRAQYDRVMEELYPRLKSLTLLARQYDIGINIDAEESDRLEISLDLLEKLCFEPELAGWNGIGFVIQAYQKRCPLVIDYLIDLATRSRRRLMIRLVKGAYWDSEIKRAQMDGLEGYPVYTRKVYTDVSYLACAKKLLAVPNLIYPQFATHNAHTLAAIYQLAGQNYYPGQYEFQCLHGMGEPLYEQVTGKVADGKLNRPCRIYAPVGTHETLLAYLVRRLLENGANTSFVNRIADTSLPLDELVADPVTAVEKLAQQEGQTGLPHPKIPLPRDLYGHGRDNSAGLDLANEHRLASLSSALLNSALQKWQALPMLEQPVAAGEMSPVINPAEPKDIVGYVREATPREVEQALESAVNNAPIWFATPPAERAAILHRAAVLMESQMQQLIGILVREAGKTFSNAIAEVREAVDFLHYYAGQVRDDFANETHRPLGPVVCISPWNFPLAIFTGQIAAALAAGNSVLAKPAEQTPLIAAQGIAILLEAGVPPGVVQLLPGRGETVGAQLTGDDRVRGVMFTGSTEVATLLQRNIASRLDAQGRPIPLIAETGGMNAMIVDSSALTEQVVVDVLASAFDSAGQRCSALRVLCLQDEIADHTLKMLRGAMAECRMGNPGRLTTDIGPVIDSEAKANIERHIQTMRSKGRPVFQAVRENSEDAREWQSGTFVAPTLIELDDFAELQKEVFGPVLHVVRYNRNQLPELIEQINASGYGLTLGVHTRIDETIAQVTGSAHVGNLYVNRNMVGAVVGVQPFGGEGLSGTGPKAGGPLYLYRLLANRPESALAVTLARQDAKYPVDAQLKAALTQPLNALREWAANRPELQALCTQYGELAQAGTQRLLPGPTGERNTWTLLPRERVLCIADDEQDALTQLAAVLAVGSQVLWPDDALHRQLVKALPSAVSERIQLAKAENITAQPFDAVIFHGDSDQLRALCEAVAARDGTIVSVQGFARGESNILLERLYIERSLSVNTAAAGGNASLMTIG
T3 sequence (D5AN87 1-1127): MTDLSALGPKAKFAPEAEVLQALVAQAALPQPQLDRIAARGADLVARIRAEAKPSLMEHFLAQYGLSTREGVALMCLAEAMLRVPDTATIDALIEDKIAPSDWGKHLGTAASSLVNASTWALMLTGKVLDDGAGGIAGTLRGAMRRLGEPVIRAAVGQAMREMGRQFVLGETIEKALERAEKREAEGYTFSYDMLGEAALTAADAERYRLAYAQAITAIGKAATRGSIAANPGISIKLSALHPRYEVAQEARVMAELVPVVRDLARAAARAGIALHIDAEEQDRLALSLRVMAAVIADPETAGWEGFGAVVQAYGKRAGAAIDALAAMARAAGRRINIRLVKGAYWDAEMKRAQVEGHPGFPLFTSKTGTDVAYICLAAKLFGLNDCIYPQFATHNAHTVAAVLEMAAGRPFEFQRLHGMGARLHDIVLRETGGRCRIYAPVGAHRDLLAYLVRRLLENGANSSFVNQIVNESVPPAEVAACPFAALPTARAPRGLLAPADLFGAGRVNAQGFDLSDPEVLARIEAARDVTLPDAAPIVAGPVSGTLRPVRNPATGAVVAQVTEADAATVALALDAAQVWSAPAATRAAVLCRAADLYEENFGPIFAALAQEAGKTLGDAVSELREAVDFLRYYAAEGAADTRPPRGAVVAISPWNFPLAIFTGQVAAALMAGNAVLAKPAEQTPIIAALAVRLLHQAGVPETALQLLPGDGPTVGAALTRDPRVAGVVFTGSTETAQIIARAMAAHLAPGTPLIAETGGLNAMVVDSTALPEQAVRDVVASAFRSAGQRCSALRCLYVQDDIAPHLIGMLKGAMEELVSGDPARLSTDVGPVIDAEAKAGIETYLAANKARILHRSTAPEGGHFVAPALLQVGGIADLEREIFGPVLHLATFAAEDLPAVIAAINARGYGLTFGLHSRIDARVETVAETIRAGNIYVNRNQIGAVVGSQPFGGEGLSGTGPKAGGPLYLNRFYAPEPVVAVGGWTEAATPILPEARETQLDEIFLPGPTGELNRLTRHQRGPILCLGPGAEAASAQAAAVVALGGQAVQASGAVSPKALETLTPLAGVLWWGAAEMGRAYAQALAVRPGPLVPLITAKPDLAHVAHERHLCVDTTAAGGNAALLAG
T2 sequence (P09546 whole entry): as the sequence (P09546 whole entry, the tested form may be a part) above

Regarding `O=C(O)[C@@H]1CCCN1` [proline], the Km in the data set on EcRHH–RcPutA (PRODH site, 300 μM CoQ1, read-out: Km) was 5300 ± 900 µM. The “lipid pull-down (E. coli polar lipid vesicles), SDS/PAGE” value at EcPutA was “RcPutA, EcRHH–RcPutA and EcPutA were incubated with E. coli polar lipid vesicles”; on RcPutA it was “In the presence of proline, RcPutA and EcRHH–RcPutA significantly partition into the lipid fraction”.

The term stoichiometry N denotes the number of molecules, sites or subunits per partner or assembly. For the molecule “EcRHH–RcPutA chimaera (RHH domain of Escherichia coli PutA fused to the N-terminus of Rhodobacter capsulatus PutA) (from UniProt P09546 1-52) (enzyme)”, the stoichiometry N in data set [1] and in data set [2] was 2 throughout.

As usually defined, the Kd is the constant that tells how readily two partners part at equilibrium. Consider put control DNA (420 bp), for which the Kd in data set [3] was 0.058 µM.

Take `COC1=C(OC)C(=O)C(CC=C(C)C)=C(C)C1=O` [CoQ1]: the Km in the data set with EcRHH–RcPutA (PRODH electron acceptor, 200 mM proline, read-out: Proline / Km) worked out at 161 ± 15.8 µM.
